Laboratory results: patent publication US20230201203A1, “METHODS OF TREATMENT USING A[…] PHARMACEUTICAL FORMULATIONS COMPRISING ANTIFOLATES” (EMPHASCIENCE, INC., priority 2020, published 2023)

Assay: in vitro
Conditions: human

Nc1nc2[nH]cc(CCc3ccc(C(=O)N[C@@H](CCC(=O)O)C(=O)O)cc3)c2c(=O)[nH]1 [pemetrexed]
CC50: ≥ 74 µg/mL
